Test results reported in patent US20250134995A1, “SAPONIN-BASED ADJUVANTS AND METHODS OF CHARACTERIZING SAME” (priority 2023, published 2025).
Where two headings read alike, the source gives them in different places.

Columns and labels:
[1] = in vitro, free QS-21; cited from earlier work
[2] = in vivo; cited from earlier work

Q: For `CC(C)CCC[C@@H](C)[C@H]1CC[C@H]2[C@@H]3CC=C4C[C@@H](O)CC[C@]4(C)[C@H]3CC[C@]12C` [cholesterol, cholesterol [1-2-3H (N)]], which elimination (after 168 h) is on record?
A: lack of complete elimination

Q: What about the “distribution to the iliac LN compared to inguinal LN and popliteal LN” value (after QF injection) of the same compound?
A: substantial

Q: And the “plateau of relative activity in intestines, lungs, and bone marrow” value (both, CD-1 IGS, mouse, in vivo)?
A: 5-20 % ID/g tissue

Q: And the “plateau of relative radioactivity in plasma and kidney” value (both, CD-1 IGS, mouse, in vivo)?
A: 5%-20%

Q: What about the “start of plateau of relative activity in testes, ovaries and uterus” value (both, CD-1 IGS, mouse, in vivo) of the same compound?
A: 24 h

Q: What about the “time at which systemic levels reached a plateau” value (both, CD-1 IGS, mouse, in vivo) of the same compound?
A: around 24 h

Q: What about the “time from which cholesterol levels are significantly higher than saponin levels at the injection site” value (both, CD-1 IGS, mouse, in vivo) of the same compound?
A: 3 to 6 h

Q: And the “time to removal from the injection site” value (both, CD-1 IGS, mouse, in vivo)?
A: ≤ 48 h

Q: And the “decline of counts at the injection site” value (compared to saponin counts)?
A: slower decline

Q: And the “early relative radioactivity in plasma and kidney” value (early timepoints, in contrast to saponins)?
A: lower relative radioactivity

Q: And the activity in urine (mouse, in vivo)?
A: Barely detectable activity

Q: And the “injected radioactive dose per gram tissue at the injection site and in the iliac LN” value (mouse, in vivo)?
A: high percentage

Q: What about the “plateauing activity in spleen, heart, and brain” value (mouse, in vivo) of the same compound?
A: lower levels

Q: And the “relative activity in the liver” value (mouse, in vivo)?
A: low levels

Q: And the “relative activity in the liver versus saponins” value (mouse, in vivo)?
A: slightly higher relative activity

Q: What about the “reproductive organ with the highest relative activity” value (mouse, in vivo) of the same compound?
A: highest relative activity of cholesterol detected in the ovaries

Q: Which hemolytic activity [1] does the source give for QS-21 here?
A: shows hemolytic activity

Q: And the “pain at the injection site” value [2]?
A: immediate pain at the injection site

Q: For saponins, which “effect of presence of SARS-COV-2 antigen on relative activity in urine and kidney” value (mouse, in vivo) is on record?
A: increased relative activity

Q: What about the excretion pathway (mouse, in vivo) of the same compound?
A: rapidly excreted via the kidneys into urine

Q: And the “injected radioactive dose per gram tissue at the injection site and in the iliac LN” value (mouse, in vivo)?
A: high percentage

Q: And the “level in bone marrow after the peak” value (mouse, in vivo)?
A: declined

Q: What about the “level in the QF and the iliac LN” value (mouse, in vivo) of the same compound?
A: low levels

Q: And the “relative activity in plasma, urine, and kidney after the peak” value (mouse, in vivo)?
A: rapid decline

Q: What about the “relative activity in the liver” value (mouse, in vivo) of the same compound?
A: low levels

Q: And the systemic accumulation (mouse, in vivo)?
A: do not accumulate systemically

Q: And the “time of highest relative activity in testes, ovaries and uterus” value (mouse, in vivo)?
A: 1 h

Q: And the “time of peak in bone marrow” value (mouse, in vivo)?
A: 3 h and 6 h

Q: What about the “time of peak relative activity in plasma, urine, and kidney” value (mouse, in vivo) of the same compound?
A: 1 to 3 h

Q: What about the “time to near complete clearance (urine as major excretion pathway)” value (mouse, in vivo) of the same compound?
A: ≤ 7 days

Q: And the “time to removal from the injection site” value (mouse, in vivo)?
A: ≤ 48 h
